{"source": "patent US20240254109A1", "about": "“SALT CONTAINING PIPERAZINE POLYCYCLIC DERIVATIVE, CRYSTAL FORM THEREOF, PREPARATION METHOD THEREFOR, AND USE THEREOF” (Shanghai Hansoh Biomedical Co., Ltd., priority 2021, published 2024)", "test": "Pharmacokinetic assay in Balb/c mice (plasma and brain tissue)", "type": "in vivo", "conditions": "p.o. 5 mg/kg", "procedure": "(III). Pharmacokinetic Assay in Balb/c Mice\nBalb/c mice were used as test animals. The pharmacokinetic behavior in mouse body (plasma and brain tissue) of the compounds of Examples of the present invention was studied at an oral administration dose of 5 mg/kg.\nMale Balb/c mice (12 mice per group), purchased from Shanghai Jiesijie Laboratory Animal Co., LTD, with Certificate No.: SCXK (Shanghai) 2013-0006 N0.311620400001794.\nThe test compound was dissolved in 0.5% CMC-Na (1% Tween80) by sonication to formulate a clear solution or homogeneous suspension.\nAfter an overnight fast, male Balb/c mice (12 mice per group) were administered p.o. with the test compound at an administration dose of 5 mg/kg and an administration volume of 10 mL/kg.\n0.2 mL of blood was taken from the heart of the mouse before administration and at 1, 2, 4, 8 and 24 hours after administration, and the mice were sacrificed with CO2. The samples were stored in EDTA-K2 tubes, and centrifuged for 6 minutes at 4° C., 6000 rpm to separate the plasma. The plasma samples were stored at −80° C. Whole brain tissue was taken out, weighed, placed in a 2 mL centrifuge tube, and stored at −80° C.\n1) 160 μL of acetonitrile was added to 40 μL of the plasma sample for precipitation, and then the mixture was centrifuged for 5 to 20 minutes at 3500×g.\n2) 90 μL of acetonitrile containing internal standard (100 ng/mL) was added to 30 μL of the plasma and brain homogenate sample for precipitation, and then the mixture was centrifuged for 8 minutes at 13000 rpm.\n3) 70 μL of water was added to 70 μL of the treated supernatant and mixed by vortex for 10 minutes. 20 μL of the supernatant was taken to analyze the concentration of the test compound by LC/MS/MS. LC/MS/MS analytical instrument: AB Sciex API 4000 Qtrap.\n• Liquid chromatography condition: Shimadzu LC-20AD pump • Chromatographic column: Agilent ZORBAX XDB-C18 (50×2.1 mm, […]); Mobile phase: Eluent A was 0.1% formic acid in water, and Eluent B was acetonitrile • Flow rate: 0.4 mL/min • Elution time: 0-4.0 minutes, the eluent is as follows:\nThe main parameters of pharmacokinetics were calculated by WinNonlin 6.1."}
{"molecule": "O=C(NC1CC(CCN2CCCN(c3cccc(Cl)c3Cl)CC2)C1)c1ccco1", "note": "(centres unmarked) [Example 25, N-(3-(2-(4-(2,3-Dichlorophenyl)-1,4-diazepan-1-yl)ethyl)cyclobutyl)furan-2-carboxamide]", "values": [{"measurement": "Peak time tmax", "setting": "Brain", "result": 1, "unit": "h"}, {"measurement": "Peak time tmax", "setting": "Plasma", "result": 1, "unit": "h"}]}
{"molecule": "CCN(C)C(=O)NC1CC(CCN2CCN(c3cccc4sccc34)CC2)C1", "note": "(centres unmarked) [Example 24, 3-(3-(2-(4-(Benzo[b]thiophen-4-yl)piperazin-1-yl)ethyl)cyclobutyl)-1-ethyl-1-methylurea]", "values": [{"measurement": "Peak time tmax", "setting": "Brain", "result": 1, "unit": "h"}, {"measurement": "Peak time tmax", "setting": "Plasma", "result": 0.5, "unit": "h"}]}
{"molecule": "O=C(N[C@H]1C[C@H](CCN2CCN(c3cccc(Cl)c3Cl)CC2)C1)c1nccs1", "note": "[Example 7A, N-(Trans-3-(2-(4-(2,3-dichlorophenyl)piperazin-1-yl)ethyl)cyclobutyl)thiazole-2-carboxamide]", "values": [{"measurement": "Peak time tmax", "setting": "Brain", "result": 1, "unit": "h"}, {"measurement": "Peak time tmax", "setting": "Plasma", "result": 1, "unit": "h"}]}
{"molecule": "O=C(NC1CC(CCN2CCN(c3cccc(Cl)c3Cl)CC2)C1)c1nccs1", "note": "(centres unmarked) [Example 7, N-(3-(2-(4-(2,3-Dichlorophenyl)piperazin-1-yl)ethyl)cyclobutyl)thiazole-2-carboxamide]", "values": [{"measurement": "Peak time tmax", "setting": "Brain", "result": 1, "unit": "h"}, {"measurement": "Peak time tmax", "setting": "Plasma", "result": 0.5, "unit": "h"}]}
{"molecule": "O=C(N[C@H]1C[C@@H](CCN2CCN(c3cccc(Cl)c3Cl)CC2)C1)C1(O)CC1", "note": "[Example 6B, N-(Cis-3-(2-(4-(2,3-dichlorophenyl)piperazin-1-yl)ethyl)cyclobutyl)-1-hydroxycyclopropane-1-carboxamide]", "values": [{"measurement": "Peak time tmax", "setting": "Brain", "result": 1, "unit": "h"}, {"measurement": "Peak time tmax", "setting": "Plasma", "result": 0.5, "unit": "h"}]}
{"molecule": "O=C(NC1CC(CCN2CCN(c3cccc(Cl)c3Cl)CC2)C1)c1ncco1", "note": "(centres unmarked) [Example 12, N-(3-(2-(4-(2,3-Dichlorophenyl)piperazin-1-yl)ethyl)cyclobutyl)oxazole-2-carboxamide]", "values": [{"measurement": "Peak time tmax", "setting": "Brain", "result": 1, "unit": "h"}, {"measurement": "Peak time tmax", "setting": "Plasma", "result": 0.5, "unit": "h"}]}
{"molecule": "O=C(N[C@H]1C[C@@H](CCN2CCN(c3cccc(Cl)c3Cl)CC2)C1)c1ncco1", "note": "[Example 12B, N-(Cis-3-(2-(4-(2,3-dichlorophenyl)piperazin-1-yl)ethyl)cyclobutyl)oxazole-2-carboxamide]", "values": [{"measurement": "Peak time tmax", "setting": "Brain", "result": 1, "unit": "h"}, {"measurement": "Peak time tmax", "setting": "Plasma", "result": 0.5, "unit": "h"}]}
